Experimental data taken from PMC10223284, “Category-Based Toxicokinetic Evaluations of Data-Poor Per- and Polyfluoroalkyl Substances (PFAS) using Gas Chromatography Coupled with Mass Spectrometry” (Toxics, 2023).
Values joined by “and” are separate entries in the source; they are usually repeats but may differ in a detail not shown here. Equal entries are not always repeated. Where two headings read alike, the source gives them in different places.

Experiments:
human plasma [1] = settings: for % remaining_PPB / PPB_Stab_Fail: plasma
Protocol: Three replicates were run per experiment, with 4NT included as a reference compound in each to evaluate assay performance. All PFAS and 4NT, prepared at a 3 mM working stock, were added to human plasma to achieve a final, thoroughly mixed assay concentration of 10 μM, incubated at 37 °C for 1 h with shaking. […] After UC, the aqueous fraction (AF; i.e., supernatant devoid of plasma proteins/lipoproteins/fatty acids) was collected and transferred to a new tube. The second aliquot maintained at 37 °C was collected (T5hr). At the relevant time points, each volume of sample was combined with 3 volumes of vigorously mixed ice-cold acetonitrile with the labeled IS and stored for 10 min at −20 °C prior to centrifugation at 12,000× g for 10 min at 4 °C. The supernatant was collected and stored at <−70 °C until quantitative analysis. […] Furthermore, chemical stability in plasma over the assay time course was assessed using the T1hr and T5hr samples.
Percent chemical remaining at the end of the UC assay (T5hr/T1hr) was used to remove unstable chemicals from further evaluation.

[2] = Abiotic loss in negative controls of the hepatocyte clearance assay (cell-free media, metabolically inactivated hepatocytes); assay type: in vitro ADME; settings: for HT BkgdCl, Slope: heat treated hepatocytes control; for HT BkgdCl, Slope / No Cells BkgdCl, Slope: 0 vs 240 min; for No Cells BkgdCl, Slope: no cells control
Procedure, shortened: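 Test compound at 1 μM incubated at 37 °C with shaking in complete William's medium E, either cell-free or with metabolically inactivated hepatocytes, then quenched with ice-cold acetonitrile for quantitative analysis.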

human plasma [3] = settings: for Mean fu: plasma
[4] = In vitro-in vivo extrapolation (IVIVE) to Css and administered equivalent dose (AED); set-up: species or system human; settings: for Clhep: IVIVE, hepatocyte Clint scaled to whole-liver clearance; for AED: administered equivalent dose from LOEC and Css; for Fub: fub=fup/(B:P), Fub set to 1 if needed; for CLint: scaled with HPGL 110 mill cells/g, Vl 1596 g
Procedure, shortened: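 Measured plasma protein binding (fup) and hepatocyte Clint served as IVIVE inputs to estimate human steady-state plasma concentration (Css). fup was converted to blood unbound fraction using blood:plasma partitioning, and Clint was scaled to whole-liver clearance (L/h). AEDs were derived by combining Css with published in vitro lowest-observed effective concentrations.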

human primary cells = settings: cited from earlier work
in vitro = settings: both, human, plasma
[5] = tested on: pooled human cryopreserved primary hepatocyte suspensions; experiment: Hepatic metabolic stability (hepatocyte clearance) assay, substrate depletion; assay type: in vitro ADME; settings: for Linear Regression Results, Best-Fit Values, Slope: hepatocyte time course; for Clint.1.Med: s9
Procedure, shortened: (§1)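 Pooled 50-donor human cryopreserved hepatocytes (50,000 cells/100 μL) incubated with 1 μM compound at 37 °C with shaking. Parent loss quantified against internal standards over time to T240 in triplicate; T½ and Clint (μL/min/million cells) from ln concentration vs time, corrected for abiotic loss in cell-free and inactivated-hepatocyte controls.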

[6] = as above; assay type: in vitro ADME, human; settings: both sexes, human
Procedure, shortened: as §1

[7] = flag for stability failure in hepatocyte clearance assay controls (1 or Fst = fail, 0 = pass)
[8] = Assuming 1 mg/kg/day dose rate, BW 70 kg
[9] = human steady-state plasma concentration, assuming 1 mg/kg/day dosage
[10] = BioSeek lowest-observed effect concentration used for AED
[11] = minimum lowest-observed effect concentration, BioSeek platform
[12] = Fraction Unbound (fu), replicates A, B, C
[13] = hepatocytes, Bkgd-Sub Clearance (µL/min/106 hepatocytes)
[14] = hepatocytes, Linear Regression Results, Best-Fit Values, Clearance
[15] = hepatocytes, Unadj in vitro Clint
[16] = Fraction Unbound (fu), Run-specific Avg

## C=C(C)C(=O)OCC(F)(F)C(F)(F)C(F)(F)C(F)(F)C(F)(F)C(F)(F)C(F)(F)F [1H,1H-Perfluorooctyl methacrylate]
Human plasma [1]
  Fstable.Med: 0.042
  Unstable: Y
Human plasma [1]; human
  % remaining_PPB: 49%
  PPB_Stab_Fail: 0
[2]; [7]
  Hep_Stab_Fail: 1
Human plasma [3]
  Fup.Med: 0.0638
  Fup.point: 0.0665
Human plasma [3]; human
  Mean fu: 0.1300

## C=C(C)C(=O)OCC(F)(F)C(F)(F)C(F)(F)F [1H,1H-Perfluorobutyl methacrylate]
Human plasma [1]
  Fstable.Med: 0.0018
  Unstable: Y
Human plasma [1]; human
  % remaining_PPB: 8%
  PPB_Stab_Fail: 1
[2]; [7]
  Hep_Stab_Fail: 1
Human plasma [3]
  Fup.Med: 0.716
  Fup.point: 0.706

## OCC(F)(F)OC(F)(F)C(F)(F)OC(F)(F)C(F)(F)OC(F)(F)CO [1H,1H,11H,11H-Perfluorotetraethylene glycol]
Human plasma [1]; both, human, 5 h, 10 μM
  Fstable.Med: 0.989
  Mean Stability: 1.051
  Stability (T5hr/ T1hr), Run-specific Avg: 0.998
  PPB_Stab_Fail: 0
[4]; [8]
  Css: 0.61 mg/L and 1.50 uM
[4]
  Clhep: 4.634 L/h
  AED: 1.3364 mg/kg/day
  Fub: 0.02327
  CLint: 3498911 µL/min
[4]; [9]
  Css: 1.50 µM
[2]; 1 μM
  No Cells BkgdCl, Clearance: 4.374
[2]; both sexes, human, hepatocytes
  half-life at 1 μM: 4.08 h
[2]; both, human, 1 μM
  HT BkgdCl, Clearance: 5.666
[2]; both, human, 120 min, 1 μM
  Hep_Stab_Fail: 0
[2]; buffer
  half-life at 1 μM: 5.28 h
[2]
  HT BkgdCl, Slope: -0.002833
  No Cells BkgdCl, Slope: -0.002187
Human primary cells; [10]
  LOEC: 2.00 µM
Human primary cells; [11]
  LOEC: 2 µM
In vitro; [12]
  fraction unbound at 5 h, 10 μM: 0.0147
In vitro; Mean Fu
  fraction unbound at 5 h, 10 μM: 0.013
In vitro; Mean fu
  fraction unbound at 5 h, 10 μM: 0.0128
[5]; both, human, 240 min, 1 μM
  Concentration (nM), Time 240 min: 88.3883 nM
[5]
  Linear Regression Results, Best-Fit Values, Slope: -0.01215
[6]; hepatocytes
  half-life at 1 μM: 0.951 h
[6]; [13]
  hepatocyte CLint at 1 μM: 19.9 µL/min/1e6 cells
[6]; hepatocytes, In Vitro Clint
  hepatocyte CLint at 1 μM: 19.9 µL/min/1e6 cells
[6]; [14]
  hepatocyte CLint at 1 μM: 24.3 µL/min/1e6 cells
[6]; hepatocytes, Unadj Clint
  hepatocyte CLint at 1 μM: 24.3 µL/min/1e6 cells
[6]; [15]
  hepatocyte CLint at 1 μM: 24.3 µL/min/1e6 cells
[6]; hepatocytes, clearance rate in hepatocytes
  hepatocyte CLint at 1 μM: 20 µL/min/1e6 cells
[6]; s9, Clint.1.Med
  hepatocyte CLint at 1 μM: 5.23 µL/min/1e6 cells
Human plasma [3]; both, human, 5 h, 10 μM
  Fup.Med: 0.0115
  Fup.point: 0.0127

## COC(=O)C(F)(F)C(F)(F)OC(F)(C(F)(F)F)C(F)(F)OC(F)=C(F)F (stereo not shown) [Methyl perfluoro(3-(1-ethenyloxypropan-2-yloxy)propanoate)]
Human plasma [1]
  Unstable: Y
Human plasma [1]; both, human, 10 μM
  Time 1 hr, Run-specific Avg: 11859.81
Human plasma [1]; both, human, 5 h, 10 μM
  Fstable.Med: 0.224
  Mean Stability: 0.836
  Stability (T5hr/ T1hr), Run-specific Avg: 0.726
  Time 5 hr, Run-specific Avg: 8614.65
  PPB_Stab_Fail: 1
[2]; both, human, 120 min, 1 μM
  Hep_Stab_Fail: 1
In vitro; [16]
  fraction unbound at 5 h, 10 μM: 0.0232
In vitro; Mean Fu
  fraction unbound at 5 h, 10 μM: 0.023
Human plasma [3]; both, human, 5 h, 10 μM
  Aqueous Fraction, Run-specific Avg: 200.27
  Fup.Med: 0.0161
  Fup.point: 0.0235

## OCC(F)(F)OC(F)(F)C(F)(F)OC(F)(F)CO [1H,1H,8H,8H-Perfluoro-3,6-dioxaoctane-1,8-diol]
Human plasma [1]; both, human, 10 μM
  Time 1 hr, Run-specific Avg: 8416.46
Human plasma [1]; both, human, 5 h, 10 μM
  Fstable.Med: 0.999
  Mean Stability: 1.067
  Stability (T5hr/ T1hr), Run-specific Avg: 1.023
  Time 5 hr, Run-specific Avg: 8614.09
  PPB_Stab_Fail: 0
[4]; [8]
  Css: 0.13 mg/L and 0.43 uM
[4]
  Clhep: 20.549 L/h
  AED: 16.1536 mg/kg/day
  Fub: 0.3762
  CLint: 1179763 µL/min
[4]; [9]
  Css: 0.43 µM
[2]; 1 μM
  No Cells BkgdCl, Clearance: 3.324
[2]; both, human, 1 μM
  HT BkgdCl, Clearance: 0
[2]; both, human, 120 min, 1 μM
  Hep_Stab_Fail: 0
[2]; buffer
  half-life at 1 μM: 6.95 h
[2]
  HT BkgdCl, Slope: -0.0009212
  No Cells BkgdCl, Slope: -0.00166
Human primary cells; [10]
  LOEC: 7.00 µM
Human primary cells; [11]
  LOEC: 7 µM
In vitro; Fraction Unbound (fu)
  fraction unbound at 5 h, 10 μM: 0.188
In vitro; [16]
  fraction unbound at 5 h, 10 μM: 0.21
In vitro; Mean Fu
  fraction unbound at 5 h, 10 μM: 0.207
In vitro; Mean fu
  fraction unbound at 5 h, 10 μM: 0.207
[5]
  Linear Regression Results, Best-Fit Values, Slope: -0.003361
[5]; human
  Clint.1.Med: 0
[6]; hepatocytes
  half-life at 1 μM: 3.44 h
[6]; hepatocytes, Bkgd Adj Clint
  hepatocyte CLint at 1 μM: 6.72 µL/min/1e6 cells
[6]; [13]
  hepatocyte CLint at 1 μM: 6.72 µL/min/1e6 cells
[6]; hepatocytes, Bkgd_adj_Clint
  hepatocyte CLint at 1 μM: 6.72 µL/min/1e6 cells
[6]; hepatocytes, In Vitro Clint
  hepatocyte CLint at 1 μM: 6.72 µL/min/1e6 cells
[6]; [14]
  hepatocyte CLint at 1 μM: 6.72 µL/min/1e6 cells
[6]; hepatocytes, Unadj Clint
  hepatocyte CLint at 1 μM: 6.72 µL/min/1e6 cells
[6]; [15]
  hepatocyte CLint at 1 μM: 6.72 µL/min/1e6 cells
Human plasma [3]; both, human, 5 h, 10 μM
  Aqueous Fraction, Run-specific Avg: 1857.99
  Fup.Med: 0.191
  Fup.point: 0.207
  fup: 0.2069

## C=C(C)C(=O)OCCC(F)(F)C(F)(F)C(F)(F)C(F)(F)C(F)(F)C(F)(F)C(F)(F)C(F)(F)F [8:2 Fluorotelomer methacrylate]
Human plasma [1]
  Fstable.Med: 0.0797
  Unstable: Y
Human plasma [1]; human
  % remaining_PPB: 66%
  PPB_Stab_Fail: 0
[2]; [7]
  Hep_Stab_Fail: 1
Human plasma [3]
  Fup.Med: 0.0461
  Fup.point: 0.0503
Human plasma [3]; human
  Mean fu: 0.09

## NC(=O)C(F)(F)C(F)(F)F [Pentafluoropropionamide]
Human plasma [1]
  Unstable: Y
Human plasma [1]; both, human, 5 h, 10 μM
  Fstable.Med: 0.19
  Mean Stability: 0.711
  Stability (T5hr/ T1hr), Run-specific Avg: 0.719
  PPB_Stab_Fail: 0
[4]; [8]
  Css: 0.44 mg/L and 2.69 uM
[4]
  Clhep: 0.000 L/h
  AED: 7.4314 mg/kg/day
  Fub: 1
  CLint: 0 µL/min
[4]; [9]
  Css: 2.69 µM
[4]; human steady-state plasma concentration, assuming 1 mg/kg/day dosage, listed as pentafluoropropionamide
  Css: 2.1 to 2.7 µM
[2]; 1 μM
  No Cells BkgdCl, Clearance: 7.66
[2]; both sexes, human, hepatocytes
  half-life at 1 μM: 3.65 h
[2]; both, human, 1 μM
  HT BkgdCl, Clearance: 6.324
[2]; both, human, 120 min, 1 μM
  Hep_Stab_Fail: 0
[2]; buffer
  half-life at 1 μM: 3.02 h
[2]
  HT BkgdCl, Slope: -0.003162
  No Cells BkgdCl, Slope: -0.00383
Human primary cells; [10]
  LOEC: 20.00 µM
Human primary cells; [11]
  LOEC: 20 µM
In vitro; [16]
  fraction unbound at 5 h, 10 μM: 0.81
In vitro; [12]
  fraction unbound at 5 h, 10 μM: 0.788
In vitro; Mean Fu
  fraction unbound at 5 h, 10 μM: 0.809
In vitro; Mean fu
  fraction unbound at 5 h, 10 μM: 0.809
[5]; both, human, 120 min, 1 μM
  Concentration (nM), Time 120 min: 809.577 nM
[5]; both, human, hepatocytes, 1 μM
  In Vitro Clint: 0.00 μL/min/10^6 cells
  in vitro CLint: 0 mL/min/106 cells
[5]
  Linear Regression Results, Best-Fit Values, Slope: -0.00227
[5]; human, hepatocytes
  Bkgd-Sub Clearance (µL/min/106 hepatocytes): 0.00 µL/min/106 hepatocytes
  Bkgd_adj_Clint: 0.00
  Unadj Clint: 0.00
  Unadj in vitro Clint: 0.00
  clearance rate in hepatocytes: no clearance
[5]; human
  Clint.1.Med: 0
Human plasma [3]; both, human, 5 h, 10 μM
  Fup.Med: 0.754
  Fup.point: 0.789
